The values that follow come from US9029370B2, “Substituted benzamide derivatives” (Hoffmann-La Roche Inc., priority 2011, dated 2015).

One assay has as its target rat TAAR1 (Rattus norvegicus (Rat), UniProt Q923Y9). Kind of assay: Radioligand binding assay on rat TAAR1. The settings on record: rat TAAR1, HEK-293 membranes; second value of the pair (line below); read-out: Ki (μM) mouse/rat. The protocol: (§1) For the construction of expression plasmids the coding sequences of human, rat and mouse TAAR 1 were amplified from genomic DNA essentially as described by Lindemann et al.. The Expand High Fidelity PCR System (Roche Diagnostics) was used with 1.5 mM Mg^2+ and purified PCR products were cloned into pCR2.1-TOPO cloning vector (Invitrogen) following the instructions of the manufacturer. PCR products were subcloned into the pIRESneo2 vector (BD Clontech, Palo Alto, Calif.), and expression vectors were sequence verified before introduction in cell lines.
(§2) HEK293 cells (ATCC # CRL-1573) were cultured essentially as described by Lindemann et al. (2005). For the generation of stably transfected cell lines HEK293 cells were transfected with the pIRESneo2 expression plasmids containing the TAAR coding sequences (described above) with Lipofectamine 2000 (Invitrogen) according to the instructions of the manufacturer, and 24 hrs post transfection the culture medium was supplemented with 1 mg/ml G418 (Sigma, Buchs, Switzerland). After a culture period of about 10 d clones were isolated, expanded and tested for responsiveness to trace amines (all compounds purchased from Sigma) with the cAMP Biotrak Enzyme immunoassay (EIA) System (Amersham) following the non-acetylation EIA procedure provided by the manufacturer.
Radioligand Binding Assay on Rat TAAR1
(§3) Membrane Preparation and Radioligand Binding.
(§4) HEK-293 cells stably expressing rat TAAR1 were maintained at 37° C. and 5% CO2 in DMEM high glucose medium, containing fetal calf serum (10%, heat inactivated for 30 min at 56° C.), penicillin/streptomycin (1%), and 375 μg/ml geneticin (Gibco). Cells were released from culture flasks using trypsin/EDTA, harvested, washed twice with ice-cold PBS (without Ca^2+ and Mg^2+), pelleted at 1′000 rpm for 5 min at 4° C., frozen and stored at −80° C. […] The homogenate was centrifuged at 48′000×g for 30 min at 4° C. Subsequently, the supernatant was removed and discarded, and the pellet resuspended in 20 ml HEPES-NaOH (20 mM, pH 7.4) containing 0.1 mM EDTA using the Polytron (20 s at 14′000 rpm). This procedure was repeated and the final pellet resuspended in HEPES-NaOH containing 0.1 mM EDTA and homogenized using the Polytron. Typically, aliquots of 2 ml membrane portions were stored at −80° C. With each new membrane batch the dissociation constant (Kd) was determined via a saturation curve. […] Nonspecific binding was defined as the amount of ^3[H]-(S)-4-[(ethyl-phenyl-amino)-methyl]-4,5-dihydro-oxazol-2-ylamine bound in the presence of 10 μM unlabeled ligand. All compounds were tested at a broad range of concentrations (10 pM to 10 μM) in duplicates. […] The 96 deep well plates were incubated for 1 hr at 4° C. Incubations were terminated by rapid filtration through Unifilter-96 plates (Packard Instrument Company) and glass filters GF/C (Perkin Elmer) presoaked for 1 hr in polyethylenimine (0.3%) and washed 3 times with 1 ml of cold binding buffer. After addition of 45 μl of Microscint 40 (PerkinElmer) the Unifilter-96 plate was sealed and after 1 hr the ratioactivity counted using a TopCount Microplate Scintillation Counter (Packard Instrument Company).

For another assay, the target named is mouse TAAR1 (Mus musculus (Mouse), UniProt Q923Y8). As to the kind of experiment: Radioligand binding assay on mouse TAAR1. The settings on record: mouse TAAR1, HEK-293 membranes; first value of the pair (before the slash); read-out: Ki (μM) mouse/rat. The procedure:
as §1, §2
Radioligand Binding Assay on Mouse TAAR1
as §3
as §4, with “expressing mouse” for “expressing rat”

Sequence of rat TAAR1 (Q923Y9 whole entry): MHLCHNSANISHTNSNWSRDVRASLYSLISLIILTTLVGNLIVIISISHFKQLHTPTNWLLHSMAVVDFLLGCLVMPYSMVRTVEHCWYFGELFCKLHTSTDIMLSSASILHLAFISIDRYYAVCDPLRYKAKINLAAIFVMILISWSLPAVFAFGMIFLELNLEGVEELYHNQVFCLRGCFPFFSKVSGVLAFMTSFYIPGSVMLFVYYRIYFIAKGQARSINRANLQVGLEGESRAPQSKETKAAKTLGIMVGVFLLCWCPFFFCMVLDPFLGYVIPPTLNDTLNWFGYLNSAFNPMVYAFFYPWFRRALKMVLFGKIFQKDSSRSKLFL
Sequence of mouse TAAR1 (Q923Y8 whole entry): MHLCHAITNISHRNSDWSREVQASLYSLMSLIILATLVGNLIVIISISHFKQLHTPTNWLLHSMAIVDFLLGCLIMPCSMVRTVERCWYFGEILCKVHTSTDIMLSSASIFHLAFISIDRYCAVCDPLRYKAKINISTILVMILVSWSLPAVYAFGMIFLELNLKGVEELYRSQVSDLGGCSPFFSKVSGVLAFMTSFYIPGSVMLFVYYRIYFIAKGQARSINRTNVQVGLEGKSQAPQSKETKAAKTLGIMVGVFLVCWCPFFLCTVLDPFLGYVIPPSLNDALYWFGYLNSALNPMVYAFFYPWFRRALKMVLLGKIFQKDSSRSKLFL

Consider `O=C(Nc1ccc(Cl)nc1)Nc1ccc(C2CNCCO2)cc1Cl` (racemic) [Example 14, (RS)-1-(2-Chloro-4-morpholin-2-yl-phenyl)-3-(6-chloro-pyridin-3-yl)-urea], for which, at rat TAAR1, the Ki amounted to 0.0039 µM.
For the molecule `N#Cc1cc(C2CNCCO2)ccc1NC(=O)c1ccn(-c2ccc(F)cc2)n1` (racemic) [Example 28, (RS)—N-(2-Cyano-4-(morpholin-2-yl)phenyl)-1-(4-fluorophenyl)-1H-pyrazole-3-carboxamide], the Ki at mouse TAAR1 came to 0.014 µM.
On to `N#Cc1cccc(NC(=O)Nc2ccc(C3CNCCO3)cc2C#N)c1` (racemic) [Example 33, (RS)-1-(2-Cyano-4-morpholin-2-yl-phenyl)-3-(3-cyano-phenyl)-urea], for which the Ki at rat TAAR1 is 1.51 µM.
On to `O=C(Nc1ccc(Cl)nc1)Nc1ccc(C2CCNC2)cc1Cl` (racemic) [Example 38, (RS)-1-(6-Chloro-pyridin-3-yl)-3-(2-chloro-4-pyrrolidin-3-yl-phenyl)-urea], for which the Ki is 0.0029 µM on mouse TAAR1 and 0.0191 µM at rat TAAR1.
In the case of `O=C(Nc1ccc(Cl)nc1)Nc1ccc(C2CCCNC2)cc1Cl` (racemic) [Example 41], the results for the Ki at mouse TAAR1 and at rat TAAR1 were 0.0015 µM and 0.009 µM, respectively.
The like results for `O=C(Nc1ccc(C2CCCNC2)cc1Cl)c1ccc(Cl)nc1` (racemic) [Example 43, (RS)-6-Chloro-N-(2-chloro-4-piperidin-3-yl-phenyl)-nicotinamide] were, in that order, 0.0164 µM and 0.367 µM.
Consider `O=C(Nc1ccc([C@@H]2CNCCO2)cc1F)c1n[nH]c2cc(F)ccc12` [Example 1, 6-Fluoro-1H-indazole-3-carboxylic acid ((R)-2-fluoro-4-morpholin-2-yl-phenyl)-amide], for which the results for the Ki on mouse TAAR1 and at rat TAAR1 were 0.001 µM and 0.0051 µM, respectively.
Consider `O=C(Nc1ccc([C@H]2CNCCO2)cc1F)c1n[nH]c2cc(F)ccc12` [Example 2, 6-Fluoro-1H-indazole-3-carboxylic acid ((S)-2-fluoro-4-morpholin-2-yl-phenyl)-amide], for which the Ki on mouse TAAR1 is 0.0012 µM; at rat TAAR1 it was 0.0009 µM.
The like results for `N#Cc1cccc(NC(=O)Nc2ccc([C@@H]3CNCCO3)cc2F)c1` [Example 3, 1-(3-Cyano-phenyl)-3-((R)-2-fluoro-4-morpholin-2-yl-phenyl)-urea] were, in that order, 0.0016 µM and 0.0015 µM.
For `N#Cc1cccc(NC(=O)Nc2ccc([C@H]3CNCCO3)cc2F)c1` [Example 4, 1-(3-Cyano-phenyl)-3-((S)-2-fluoro-4-morpholin-2-yl-phenyl)-urea], in that order: 0.0017 µM and 0.0028 µM.
For `O=C(Nc1ccc(Cl)nc1)Nc1ccc([C@@H]2CNCCO2)cc1F` [Example 8, 1-(6-Chloro-pyridin-3-yl)-3-((R)-2-fluoro-4-morpholin-2-yl-phenyl)-urea], in that order: 0.0026 µM and 0.0039 µM.
Regarding `O=C(Nc1ccc(Cl)nc1)Nc1ccc([C@H]2CNCCO2)cc1F` [Example 9, 1-(6-Chloro-pyridin-3-yl)-3-((S)-2-fluoro-4-morpholin-2-yl-phenyl)-urea], the Ki at mouse TAAR1 was found to be 0.0017 µM; on rat TAAR1, 0.0105 µM.
As for `O=C(Nc1ccc(C(F)(F)F)nc1)Nc1ccc([C@@H]2CNCCO2)cc1F` [Example 10, 1-((R)-2-Fluoro-4-morpholin-2-yl-phenyl)-3-(6-trifluoromethyl-pyridin-3-yl)-urea], the Ki at mouse TAAR1 and on rat TAAR1 was 0.0033 µM in each case.
On to `O=C(Nc1ccc(C(F)(F)F)nc1)Nc1ccc([C@H]2CNCCO2)cc1F` [Example 11, 1-((S)-2-Fluoro-4-morpholin-2-yl-phenyl)-3-(6-trifluoromethyl-pyridin-3-yl)-urea], for which the Ki turned out to be 0.0035 µM at mouse TAAR1 and 0.0095 µM at rat TAAR1.
The like results for `O=C(Nc1ccc([C@@H]2CNCCO2)cc1F)c1ccn(-c2ccc(F)cc2)n1` [Example 12, 1-(4-Fluoro-phenyl)-1H-pyrazole-3-carboxylic acid ((R)-2-fluoro-4-morpholin-2-yl-phenyl)-amide] were, in that order, 0.0026 µM and 0.0006 µM.
`O=C(Nc1ccc([C@H]2CNCCO2)cc1F)c1ccn(-c2ccc(F)cc2)n1` [Example 13, 1-(4-Fluoro-phenyl)-1H-pyrazole-3-carboxylic acid ((S)-2-fluoro-4-morpholin-2-yl-phenyl)-amide]: the Ki on mouse TAAR1 is 0.0011 µM; at rat TAAR1, 0.0024 µM.
As to `N#Cc1cccc(CNC(=O)Nc2ccc([C@@H]3CNCCO3)cc2F)c1` [Example 15, 1-(3-Cyano-benzyl)-3-((R)-2-fluoro-4-morpholin-2-yl-phenyl)-urea], the Ki stood at 0.0074 µM on mouse TAAR1 and 0.0544 µM at rat TAAR1.
For `Cn1nc(-c2ccccc2)cc1C(=O)Nc1ccc([C@H]2CNCCO2)cc1F` [Example 17, 2-Methyl-5-phenyl-2H-pyrazole-3-carboxylic acid ((S)-2-fluoro-4-morpholin-2-yl-phenyl)-amide], in that order: 0.0151 µM and 0.0128 µM.
As for `O=C(Nc1ccc(Cl)nc1)Nc1ccc([C@H]2CNCCO2)cc1Cl` [Example 19, (S)-1-(2-Chloro-4-morpholin-2-yl-phenyl)-3-(6-chloro-pyridin-3-yl)-urea], the Ki on rat TAAR1 was found to be 0.0034 µM.
For `O=C(Nc1ccc(Cl)nc1)Nc1ccc([C@@H]2CNCCO2)cc1Cl` [Example 20, (R)-1-(2-Chloro-4-morpholin-2-yl-phenyl)-3-(6-chloro-pyridin-3-yl)-urea], the Ki on rat TAAR1 came out at 0.005 µM.
On to `O=C(Nc1ccc([C@@H]2CNCCO2)cc1F)c1cnn(-c2ccc(F)cc2)c1` [Example 21, (R)—N-(2-fluoro-4-(morpholin-2-yl)phenyl)-1-(4-fluorophenyl)-1H-pyrazole-4-carboxamide], for which the Ki at mouse TAAR1 was 0.0032 µM; at rat TAAR1, 0.0022 µM.
The like results for `O=C(Nc1ccc([C@H]2CNCCO2)cc1F)c1cnn(-c2ccc(F)cc2)c1` [Example 22, (S)—N-(2-fluoro-4-(morpholin-2-yl)phenyl)-1-(4-fluorophenyl)-1H-pyrazole-4-carboxamide] were, in that order, 0.002 µM and 0.0036 µM.
The like results for `Cn1nc(-c2ccccc2)cc1C(=O)Nc1ccc([C@@H]2CNCCO2)cc1F` [Example 23, 2-Methyl-5-phenyl-2H-pyrazole-3-carboxylic acid ((R)-2-fluoro-4-morpholin-2-yl-phenyl)-amide] were, in that order, 0.0254 µM and 0.0033 µM.
For `COc1cc(C(=O)Nc2ccc([C@@H]3CNCCO3)cc2F)cc(Cl)n1` [Example 24, 2-Chloro-N—((R)-2-fluoro-4-morpholin-2-yl-phenyl)-6-methoxy-isonicotinamide], in that order: 0.0032 µM and 0.007 µM.
